Measurements reported in PMC5218480 (PLoS ONE, 2017).

Tested on: MV-4-11 cells
Assay: Gene expression microarray analysis (Affymetrix PrimeView) and GSEA
Type: cell-based, human
Set-up: RFU PODN (11730768_x_at) / Fold change /veh PODN (11730768_x_at) / RFU LINC00158 (11744669_a_at) / Fold change /veh LINC00158 (11744669_a_at) / RFU DUSP10 (11751237_a_at) / Fold change /veh DUSP10 (11751237_a_at) / RFU ID3 (11757404_x_at) / Fold change /veh ID3 (11757404_x_at) / RFU PLEKHG5 (11737974_s_at) / Fold change /veh PLEKHG5 (11737974_s_at) / RFU LRRC4B (11730491_at) / Fold change /veh LRRC4B (11730491_at) / RFU GIMAP4 (11747438_a_at) / Fold change /veh GIMAP4 (11747438_a_at) / RFU KRT8 (11758183_x_at) / Fold change /veh KRT8 (11758183_x_at) / RFU CNN1 (11734310_a_at) / Fold change /veh CNN1 (11734310_a_at) / RFU VPS37D (11726825_at) / Fold change /veh VPS37D (11726825_at) / RFU C10orf10 (11716522_x_at) / Fold change /veh C10orf10 (11716522_x_at) / RFU KIR2DL2 /// KIR2DL4 /// KIR2DL5A /// KIR2DL5B /// KIR2DS1 /// KIR2DS2 /// KIR2DS3 /// KIR2DS4 /// KIR3DL3 /// KIR3DL3 /// KIR3DS1 (11738374_at) / Fold change /veh KIR2DL2 /// KIR2DL4 /// KIR2DL5A /// KIR2DL5B /// KIR2DS1 /// KIR2DS2 /// KIR2DS3 /// KIR2DS4 /// KIR3DL3 /// KIR3DL3 /// KIR3DS1 (11738374_at) / RFU C1QL1 (11718748_at) / Fold change /veh C1QL1 (11718748_at) / RFU TMPRSS4 (11747572_a_at) / Fold change /veh TMPRSS4 (11747572_a_at) / RFU HAMP (11756126_x_at) / Fold change /veh HAMP (11756126_x_at) / RFU RNFT2 (11725882_a_at) / Fold change /veh RNFT2 (11725882_a_at) / RFU NR4A2 (11747474_a_at) / Fold change /veh NR4A2 (11747474_a_at) / RFU ABCC12 (11746883_a_at) / Fold change /veh ABCC12 (11746883_a_at) / RFU TMEM136 (11760407_x_at) / Fold change /veh TMEM136 (11760407_x_at) / RFU CLDN22 /// WWC2 (11732394_at) / Fold change /veh CLDN22 /// WWC2 (11732394_at) / RFU HLA-DPB1 (11760878_x_at) / Fold change /veh HLA-DPB1 (11760878_x_at) / RFU SPINT1 (11716480_a_at) / Fold change /veh SPINT1 (11716480_a_at) / RFU GAP43 (11754022_s_at) / Fold change /veh GAP43 (11754022_s_at) / RFU A4GNT (11735810_at) / Fold change /veh A4GNT (11735810_at) / RFU PRB3 (11715151_x_at) / Fold change /veh PRB3 (11715151_x_at) / RFU TUBB4B (11761932_at) / Fold change /veh TUBB4B (11761932_at) / RFU CAPN14 (11732068_a_at) / Fold change /veh CAPN14 (11732068_a_at) / RFU TMCC2 (11721928_a_at) / Fold change /veh TMCC2 (11721928_a_at) / RFU IRGQ (11745062_a_at) / Fold change /veh IRGQ (11745062_a_at) / RFU FAM174B (11720279_a_at) / Fold change /veh FAM174B (11720279_a_at) / RFU TMPRSS4 (11748680_a_at) / Fold change /veh TMPRSS4 (11748680_a_at) / RFU FAM212B (11763350_a_at) / Fold change /veh FAM212B (11763350_a_at) / RFU PLEKHG5 (11743358_a_at) / Fold change /veh PLEKHG5 (11743358_a_at) / RFU ZSCAN30 (11745921_a_at) / Fold change /veh ZSCAN30 (11745921_a_at) / RFU CMKLR1 (11741424_a_at) / Fold change /veh CMKLR1 (11741424_a_at) / RFU LOC101060620 /// MAPK8IP1 (11723275_at) / Fold change /veh LOC101060620 /// MAPK8IP1 (11723275_at) / RFU SPTSSB (11747773_x_at) / Fold change /veh SPTSSB (11747773_x_at) / RFU PRSS12 (11739890_at) / Fold change /veh PRSS12 (11739890_at) / RFU BIN1 (11741810_x_at) / Fold change /veh BIN1 (11741810_x_at) / RFU WNT11 (11732464_a_at) / Fold change /veh WNT11 (11732464_a_at) / RFU C10orf10 (11716521_a_at) / Fold change /veh C10orf10 (11716521_a_at) / RFU C5orf56 (11738089_at) / Fold change /veh C5orf56 (11738089_at) / RFU CYB561 (11721691_x_at) / Fold change /veh CYB561 (11721691_x_at) / RFU ANKRD19P (11752326_a_at) / Fold change /veh ANKRD19P (11752326_a_at) / RFU OR2T12 /// OR2T33 /// OR2T8 (11738714_s_at) / Fold change /veh OR2T12 /// OR2T33 /// OR2T8 (11738714_s_at) / RFU VCAN (11748164_a_at) / Fold change /veh VCAN (11748164_a_at) / RFU JSRP1 (11732532_at) / Fold change /veh JSRP1 (11732532_at) / RFU KRTAP10-11 (11738290_x_at) / Fold change /veh KRTAP10-11 (11738290_x_at) / RFU MYO3A (11730013_a_at) / Fold change /veh MYO3A (11730013_a_at) / RFU EBF3 (11725865_a_at) / Fold change /veh EBF3 (11725865_a_at) / RFU CAMK2N1 (11719241_x_at) / Fold change /veh CAMK2N1 (11719241_x_at) / RFU C5orf56 (11738088_a_at) / Fold change /veh C5orf56 (11738088_a_at) / RFU OLFML3 (11715873_a_at) / Fold change /veh OLFML3 (11715873_a_at) / RFU LOC100653217 /// NTM (11731650_a_at) / Fold change /veh LOC100653217 /// NTM (11731650_a_at) / RFU MAPK11 (11762145_a_at) / Fold change /veh MAPK11 (11762145_a_at) / RFU FIZ1 (11724087_x_at) / Fold change /veh FIZ1 (11724087_x_at) / RFU OASL (11726364_x_at) / Fold change /veh OASL (11726364_x_at) / RFU SOX15 (11748057_x_at) / Fold change /veh SOX15 (11748057_x_at) / RFU CD79A (11719716_a_at) / Fold change /veh CD79A (11719716_a_at) / RFU HIST1H1D (11736915_at) / Fold change /veh HIST1H1D (11736915_at) / RFU CASKIN2 (11723855_a_at) / Fold change /veh CASKIN2 (11723855_a_at) / RFU LOC730098 (11760151_x_at) / Fold change /veh LOC730098 (11760151_x_at) / RFU OR4N2 (11742367_at) / Fold change /veh OR4N2 (11742367_at) / RFU PRRT2 (11749266_a_at) / Fold change /veh PRRT2 (11749266_a_at) / RFU SNX32 (11753110_a_at) / Fold change /veh SNX32 (11753110_a_at) / RFU CDHR5 (11726645_a_at) / Fold change /veh CDHR5 (11726645_a_at) / RFU RCAN1 (11760418_a_at) / Fold change /veh RCAN1 (11760418_a_at) / RFU FAM167A (11723789_a_at) / Fold change /veh FAM167A (11723789_a_at) / RFU FAM26E (11764081_at) / Fold change /veh FAM26E (11764081_at) / RFU ISYNA1 (11749810_s_at) / Fold change /veh ISYNA1 (11749810_s_at) / RFU ACY1 (11761880_at) / Fold change /veh ACY1 (11761880_at) / RFU 11764098_at / Fold change /veh 11764098_at / RFU SAMD14 (11745864_x_at) / Fold change /veh SAMD14 (11745864_x_at) / RFU NPB (11741838_a_at) / Fold change /veh NPB (11741838_a_at) / RFU TMPRSS6 (11731388_a_at) / Fold change /veh TMPRSS6 (11731388_a_at) / RFU KRTAP10-2 (11738614_at) / Fold change /veh KRTAP10-2 (11738614_at) / RFU ARHGAP8 /// PRR5-ARHGAP8 (11727945_x_at) / Fold change /veh ARHGAP8 /// PRR5-ARHGAP8 (11727945_x_at) / RFU KRTAP5-7 /// NADSYN1 (11734609_at) / Fold change /veh KRTAP5-7 /// NADSYN1 (11734609_at) / RFU RASL12 (11751679_a_at) / Fold change /veh RASL12 (11751679_a_at) / RFU CDKN2B (11736163_a_at) / Fold change /veh CDKN2B (11736163_a_at) / RFU PRF1 (11729649_at) / Fold change /veh PRF1 (11729649_at) / RFU, ZNF638 /// ZNF638-IT1 / Fold change vs veh, ZNF638 /// ZNF638-IT1 / RFU, PANK3 / Fold change vs veh, PANK3 / RFU, SH3YL1 / Fold change vs veh, SH3YL1 / RFU, ZEB2 / Fold change vs veh, ZEB2 / RFU, NRIP1 / Fold change vs veh, NRIP1 / RFU, PTTG1IP / Fold change vs veh, PTTG1IP / RFU, CAPN2 / Fold change vs veh, CAPN2 / RFU, MED14 / Fold change vs veh, MED14 / RFU, SNORA58 / Fold change vs veh, SNORA58 / RFU, C1orf63 / Fold change vs veh, C1orf63 / RFU, LRRFIP1 / Fold change vs veh, LRRFIP1 / RFU, NDUFAF7 / Fold change vs veh, NDUFAF7 / RFU, SLC12A2 / Fold change vs veh, SLC12A2 / RFU, IBTK / Fold change vs veh, IBTK / RFU, ESF1 / Fold change vs veh, ESF1 / Fold change vs veh, TMEM50B / RFU, TAOK1 / Fold change vs veh, TAOK1 / RFU, ACBD3 / Fold change vs veh, ACBD3 / RFU, TMA16 / Fold change vs veh, TMA16 / RFU, RWDD3 / Fold change vs veh, RWDD3 / RFU, BCAT1 / Fold change vs veh, BCAT1 / RFU, EDEM3 / Fold change vs veh, EDEM3 / RFU, TMEM33 / Fold change vs veh, TMEM33 / RFU, WDR75 / Fold change vs veh, WDR75 / RFU, AHCTF1 / Fold change vs veh, AHCTF1 / RFU, TFRC / Fold change vs veh, TFRC / RFU, ZDHHC17 / Fold change vs veh, ZDHHC17 / RFU, NOM1 / Fold change vs veh, NOM1 / RFU, ARL8B / Fold change vs veh, ARL8B / RFU, ZBTB11 / Fold change vs veh, ZBTB11 / RFU, TAMM41 / Fold change vs veh, TAMM41 / RFU, KIAA1704 /// LOC100996395 / Fold change vs veh, KIAA1704 /// LOC100996395 / RFU, ING1 / Fold change vs veh, ING1 / RFU, TRMT61B / Fold change vs veh, TRMT61B / RFU, FUBP3 / Fold change vs veh, FUBP3 / RFU, TP53 / Fold change vs veh, TP53 / RFU, TNKS2 / Fold change vs veh, TNKS2 / RFU, ZFP14 / Fold change vs veh, ZFP14 / RFU, ACTR2 / Fold change vs veh, ACTR2 / RFU, PPP3R1 / Fold change vs veh, PPP3R1 / RFU, PIK3R1 / Fold change vs veh, PIK3R1 / RFU, HNRNPA1 / Fold change vs veh, HNRNPA1 / RFU, RNF170 / Fold change vs veh, RNF170 / RFU, ZNF28 / Fold change vs veh, ZNF28 / RFU, RNGTT / Fold change vs veh, RNGTT / RFU, OGT / Fold change vs veh, OGT / RFU, BRD1 / Fold change vs veh, BRD1 / RFU, MARS / Fold change vs veh, MARS / RFU, ZNF655 / Fold change vs veh, ZNF655 / RFU, FAHD1 / Fold change vs veh, FAHD1 / RFU, BDP1 / Fold change vs veh, BDP1 / RFU, LRRCC1 / Fold change vs veh, LRRCC1 / RFU, ARID1A / Fold change vs veh, ARID1A / RFU, ZNF146 / Fold change vs veh, ZNF146 / RFU, ZNF330 / Fold change vs veh, ZNF330 / RFU, GPN3 / Fold change vs veh, GPN3 / RFU, C9orf123 / Fold change vs veh, C9orf123 / RFU, N4BP2L2 / Fold change vs veh, N4BP2L2 / RFU, ARFIP1 / Fold change vs veh, ARFIP1 / RFU, FAM179B / Fold change vs veh, FAM179B / RFU, BCL10 / Fold change vs veh, BCL10 / RFU, UHRF1BP1L / Fold change vs veh, UHRF1BP1L / RFU, BET1 / Fold change vs veh, BET1 / RFU, CNOT2 / Fold change vs veh, CNOT2 / RFU, ZNF268 / Fold change vs veh, ZNF268 / Fold change vs veh, ZNF507 / RFU, DGCR2 / Fold change vs veh, DGCR2 / RFU, WDSUB1 / Fold change vs veh, WDSUB1 / Fold change vs veh, HSP90B1 /// MIR3652 / RFU, ADSS / Fold change vs veh, ADSS / RFU, GK / Fold change vs veh, GK / RFU, ZNF148 / Fold change vs veh, ZNF148 / RFU, TAF9 / Fold change vs veh, TAF9 / RFU, SLC1A5 / Fold change vs veh, SLC1A5 / RFU, SLMO2 / Fold change vs veh, SLMO2 / RFU, ABCC4 / Fold change vs veh, ABCC4 / RFU, LOC101060439 /// RAP1B / Fold change vs veh, LOC101060439 /// RAP1B / RFU, RFX7 / Fold change vs veh, RFX7 / RFU, GTPBP10 / Fold change vs veh, GTPBP10 / RFU, CNEP1R1 / Fold change vs veh, CNEP1R1 / RFU, BIVM-ERCC5 /// ERCC5 / Fold change vs veh, BIVM-ERCC5 /// ERCC5 / RFU, ILF3 / Fold change vs veh, ILF3 / RFU 11762660_at / Fold change /veh 11762660_at / RFU VCAN (11757783_s_at) / Fold change /veh VCAN (11757783_s_at) / RFU DDX43 (11728927_at) / Fold change /veh DDX43 (11728927_at) / RFU KRT8 (11758188_x_at) / Fold change /veh KRT8 (11758188_x_at) / RFU NKD1 (11759106_at) / Fold change /veh NKD1 (11759106_at) / RFU SRD5A1 (11742802_a_at) / Fold change /veh SRD5A1 (11742802_a_at) / RFU TPSAB1 /// TPSB2 (11721975_s_at) / Fold change /veh TPSAB1 /// TPSB2 (11721975_s_at) / RFU GSTM3 (11746129_a_at) / Fold change /veh GSTM3 (11746129_a_at) / RFU IL23R (11737362_x_at) / Fold change /veh IL23R (11737362_x_at) / RFU TMEM51 (11727254_a_at) / Fold change /veh TMEM51 (11727254_a_at) / RFU PIWIL2 (11732686_x_at) / Fold change /veh PIWIL2 (11732686_x_at) / RFU ORM1 (11744905_x_at) / Fold change /veh ORM1 (11744905_x_at) / RFU CCDC152 (11743942_at) / Fold change /veh CCDC152 (11743942_at) / RFU ECM1 (11717891_a_at) / Fold change /veh ECM1 (11717891_a_at) / RFU IL23R (11748794_a_at) / Fold change /veh IL23R (11748794_a_at) / RFU TNFAIP8L3 (11732012_x_at) / Fold change /veh TNFAIP8L3 (11732012_x_at) / RFU MBOAT4 (11741988_at) / Fold change /veh MBOAT4 (11741988_at) / RFU 11764193_at / Fold change /veh 11764193_at / RFU TMEM53 (11763286_at) / Fold change /veh TMEM53 (11763286_at) / RFU MAGEB2 (11727129_at) / Fold change /veh MAGEB2 (11727129_at) / RFU TMEM200A (11744735_a_at) / Fold change /veh TMEM200A (11744735_a_at) / RFU CCDC152 (11751479_a_at) / Fold change /veh CCDC152 (11751479_a_at) / RFU FAM211A (11726209_a_at) / Fold change /veh FAM211A (11726209_a_at) / RFU RGS16 (11746705_a_at) / Fold change /veh RGS16 (11746705_a_at) / RFU VCAN (11755009_s_at) / Fold change /veh VCAN (11755009_s_at) / RFU RHOB (11743442_s_at) / Fold change /veh RHOB (11743442_s_at) / RFU RGS16 (11720943_a_at) / Fold change /veh RGS16 (11720943_a_at) / RFU RGS16 (11720944_at) / Fold change /veh RGS16 (11720944_at) / RFU, VPS4B / Fold change vs veh, VPS4B / RFU, CREB1 / Fold change vs veh, CREB1 / RFU, DNAJC13 / Fold change vs veh, DNAJC13 / RFU, GNAQ / Fold change vs veh, GNAQ / RFU, CDK5R1 / Fold change vs veh, CDK5R1 / RFU, ZRANB3 / Fold change vs veh, ZRANB3 / RFU, CUL4A / Fold change vs veh, CUL4A / RFU, CCNY / Fold change vs veh, CCNY / RFU, UFL1 / Fold change vs veh, UFL1 / RFU, COG3 / Fold change vs veh, COG3 / RFU, DIAPH2 / Fold change vs veh, DIAPH2 / RFU, SKA2 / Fold change vs veh, SKA2 / RFU, AFF3 / Fold change vs veh, AFF3 / RFU, LMF1 / Fold change vs veh, LMF1 / RFU, IPO11 / Fold change vs veh, IPO11 / RFU, DFFB / Fold change vs veh, DFFB / RFU, FOXP1 / Fold change vs veh, FOXP1 / RFU, CARD8 / Fold change vs veh, CARD8 / RFU, STRN3 / Fold change vs veh, STRN3 / RFU, ADK / Fold change vs veh, ADK / RFU, RASSF2 / Fold change vs veh, RASSF2 / RFU, WIPF1 / Fold change vs veh, WIPF1 / RFU, LARP1B / Fold change vs veh, LARP1B / RFU, RASA1 / Fold change vs veh, RASA1 / RFU, RB1 / Fold change vs veh, RB1 / RFU, PPFIA1 / Fold change vs veh, PPFIA1 / RFU, MAT2A / Fold change vs veh, MAT2A / RFU, CCT5 / Fold change vs veh, CCT5 / RFU, WDR92 / Fold change vs veh, WDR92 / RFU, CUX1 / Fold change vs veh, CUX1 / RFU, TTC7A / Fold change vs veh, TTC7A / RFU, TMEM135 / Fold change vs veh, TMEM135 / RFU, DEPTOR / Fold change vs veh, DEPTOR / RFU, CPM / Fold change vs veh, CPM / RFU, DNAJB6 / Fold change vs veh, DNAJB6 / RFU, CACNA2D3 / Fold change vs veh, CACNA2D3 / RFU, DTX4 / Fold change vs veh, DTX4 / RFU, TFCP2 / Fold change vs veh, TFCP2 / RFU, GMCL1 /// GMCL1P1 / Fold change vs veh, GMCL1 /// GMCL1P1 / RFU, AEBP2 / Fold change vs veh, AEBP2 / RFU, SNHG1 /// SNORD22 /// SNORD25 /// SNORD26 /// SNORD27 /// SNORD28 /// SNORD29 /// SNORD31 / Fold change vs veh, SNHG1 /// SNORD22 /// SNORD25 /// SNORD26 /// SNORD27 /// SNORD28 /// SNORD29 /// SNORD31 / Fold change (Aza/veh), C12orf56 (ProbeSet 11735607_a_at) / Fold change (ACY-1035/veh), C12orf56 (ProbeSet 11735607_a_at) / Fold change (Aza/veh), FGFR1OP (ProbeSet 11751329_s_at) / Fold change (ACY-1035/veh), FGFR1OP (ProbeSet 11751329_s_at) / Fold change (Aza/veh), VPS36 (ProbeSet 11739960_a_at) / Fold change (ACY-1035/veh), VPS36 (ProbeSet 11739960_a_at) / RFU SYPL1 (11715823_x_at) / Fold change /veh SYPL1 (11715823_x_at) / RFU IGFBP7 (11715501_s_at) / Fold change /veh IGFBP7 (11715501_s_at) / RFU REEP3 (11722064_at) / Fold change /veh REEP3 (11722064_at) / RFU IGLL1 (11728026_x_at) / Fold change /veh IGLL1 (11728026_x_at): dose or concentration left out as unconfirmed
Details: MV-4-11 cells, 48 hours

Compound: Nc1ccc(-c2cccs2)cc1NC(=O)c1ccc2c(c1)cc(C1CC1)n2CCN1CCOCC1 [ACY-1035]
- RFU PRRT2 (11749266_a_at): 47.30 RFU
